Laboratory results from BindingDB's records for doi:10.7270/Q2HT2MQ5 (Nmmlsc, 2009).

Biological target: Cell division control protein 42 homolog (Homo sapiens, UniProt P60953)
Experiment: wild-type Cdc42 nucleotide-binding inhibitors, SAR follow-up, biochemical, bead-based multiplex flow cytometry, oxadiazole series (AID 2037)
Settings: inactive by the depositor's call

Cell division control protein 42 homolog, sequence (P60953 whole entry): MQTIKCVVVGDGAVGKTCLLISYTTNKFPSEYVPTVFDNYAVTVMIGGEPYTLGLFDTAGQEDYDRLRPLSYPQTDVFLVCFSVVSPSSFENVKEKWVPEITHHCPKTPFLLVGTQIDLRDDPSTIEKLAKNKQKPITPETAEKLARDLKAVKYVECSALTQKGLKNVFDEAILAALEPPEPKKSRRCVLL

SMILES: COc1ccc(-c2noc(CCC(=O)N3CCN(c4ccc(OC)cc4)CC3)n2)cc1 [3-[3-(4-methoxyphenyl)-1,2,4-oxadiazol-5-yl]-1-[4-(4-methoxyphenyl)piperazin-1-yl]propan-1-one]
- Ki: 100 nM
